In PubChem BioAssay AID179 (DTP/NCI, 2004):
Calls of active or inactive are those of the source.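 The calls were made as follows: active = compounds giving half or more protection of infected cells from virus-caused growth loss, again on retest; inactive = the rest.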 Where a SMILES comes first, the peptide text is derived from it. Bridges are numbered along the chain shown (N, C = ends). Roman numbers before positions name the chains, in order.

System: CEM cells HIV-1 protection, formazan growth assay
Assay: NCI AIDS Antiviral Assay
Details: for IC50: measured here: growth of uninfected CEM cells
Protocol: The ability of compounds to protect human CEM cells from HIV-1 infection is measured as a screen for new compounds capable of inhibiting the HIV virus. Five concentrations of drug were tested on uninfected and infected cells and cell growth was measured using a soluble formazan assay. […] Compounds that provided at least 50% protection were retested. Compounds that provided at least 50% protection on retest were listed as moderately active. Compounds that reproducibly provided 100% protection were listed as confirmed active. […] Note that the inability to provide protection could be due to toxicity.

SMILES | EC50 [µM] | IC50 [µM] | outcome
S=C(N/N=C/c1ccccc1Cl)Nc1ccccc1 | > 200 | 135 | 
COc1cc(CNC(=O)CCCCCCCCCCSSCCCCCCCCCCC(=O)NCc2ccc(O)c(OC)c2)ccc1O | > 200 |  | 
O=C(C(=Cn1c(=S)[nH]c2ccc([N+](=O)[O-])cc21)C(=O)c1ccccc1)c1ccccc1 | > 200 | 81.3 | 
CCN(CCCl)c1cc(C(=O)NCCCN(C)CCCNC(=O)c2cc(N(CC)CCCl)c([N+](=O)[O-])cc2[N+](=O)[O-])c([N+](=O)[O-])cc1[N+](=O)[O-] | > 200 | 10.7 | 
COc1cc(C2SCC(=O)N2c2ccc(Oc3ccc(Cl)cc3)c(Cl)c2)cc(OC)c1OC (stereo not drawn) | > 200 | 20 | 
C/C=C/c1cc(=O)c([C@@H]2OC(=O)c3cc(OC)cc(OC)c32)co1 | > 200 | 83.2 | 
Cc1c2n(c3ccccc13)CC1CON(C)C21 (stereo not drawn) | > 1100 | 355 | 
CCOC(=O)Oc1cc2c(c(OC)c1OC)-c1ccc(OC)c(=O)cc1C(NC(C)=O)CC2 (stereo not drawn) | > 2 | 0.00525 | 
O=C(C=P(c1ccccc1)(c1ccccc1)c1ccccc1)CC(=S)CC(=O)C=P(c1ccccc1)(c1ccccc1)c1ccccc1 |  |  | inactive
Nc1nc(N)c(N)c(Nc2ccccc2)n1 | > 200 | 20.4 | 
OCC12C3C4C1C1C2C3C41CO (stereo not drawn) | > 1510 | > 1510 | 
O=C1Nc2cccc3c2N(CCC3)C2=C1CCC2 | > 200 | > 200 | 
O=C(c1ccccc1)[C@H]1Nc2cnccc2C2c3ccccc3CC21 (stereo partly drawn) | > 30.9 | > 30.9 | 
NC(=O)c1cc([N+](=O)[O-])cc([N+](=O)[O-])c1 | > 200 | 40.7 | 
CCC1(c2ccccc2)C(=O)N=C(c2ccccc2)N1CCc1ccccc1 (stereo not drawn) | > 200 | > 200 | 
C/C(=N\O)C(CN1CCCCC1)C(c1ccccc1)c1c(O)c2ccccc2oc1=O (stereo not drawn) | > 29.5 | > 29.5 | 
O=C1c2ccccc2C(=O)N1CCS(=O)(=O)CCS(=O)(=O)CCN1C(=O)c2ccccc2C1=O | > 200 | > 200 | 
O=C1CCC2CCC1C2 (stereo not drawn) | > 200 | > 200 | 
CC(C)=C1C2CCC1C1CSCC21 (stereo not drawn) | > 115 | > 115 | 
O=C1CSC2=NC3=C(CSC/C3=C\c3ccc(Cl)cc3)C(c3ccc(Cl)cc3)N12 (stereo not drawn) | > 200 | 9.77 | 
Cc1ccc(S(=O)(=O)Nn2c3c(cc(C#N)c2=O)CCCC3)cc1 | > 200 | > 200 | 

SMILES | EC50 [µM] | IC50 [µM] | outcome
COc1nc(OC)n(C)c(=O)c1OP(=O)(OC)OC | > 200 | > 200 | 
O=C1c2cccc3cccc(c23)C(=O)N1C(Cc1ccccc1)c1ccccc1 (stereo not drawn) | > 200 | > 200 | 
N#CCCCCC12C3C(=O)N(c4ccccc4)C(=O)C3ON1O[C@@H]1C(=O)N(c3ccccc3)C(=O)[C@@H]12 (stereo partly drawn) | > 200 | > 200 | 
CCCCCC/C(CC(=O)CCC(=O)NCCc1ccccc1)=N\Nc1ccc([N+](=O)[O-])cc1[N+](=O)[O-] | > 97.7 | > 97.7 | 
CN(C)/C=C\c1c([N+](=O)[O-])ncn1C | > 200 | > 200 | 
c1ccc([P+](Cc2ccc3c(c2)OCO3)(c2ccccc2)c2ccccc2)cc1 | > 200 | 3.39 | 
CC(=O)CCn1[nH]c(=O)c(Cl)c(Cl)c1=O | > 1000 | > 1000 | 
COc1ccc(OC)c(CCc2ccccc2CC(=O)O)c1 | > 832 | 501 | 
C=C(C)CNC(=S)N(N)c1ccc(OC)cc1 | > 200 | 69.2 | 
N#C/C=C/c1cccc(F)c1 | > 49 | > 49 | 
CCCOC(=O)c1cc(C(=CCC[C@H]2CC[C@@]3(C)[C@@H](CC[C@@H]4[C@@H]3CC[C@]3(C)[C@@H](C(C)CCCC(C)C)CC[C@@H]43)C2)c2cc(Cl)c(O)c(C(=O)OCCC)c2)cc(Cl)c1O (stereo partly drawn) | > 151 | > 151 | 
C=C[C@@]1(C)CCC2(O)C(CCC3C2(C)CCC[C@@]3(C)COC(=O)CC(=O)OC)C1 (stereo partly drawn) | > 24.5 | > 24.5 | 
C/C=C1/CN2C3CC1C1(C(=O)OC)C(OC(C)=O)[C@]4(C[C@H]21)c1cc(OC)ccc1N(C)C34 (stereo partly drawn) |  |  | inactive
O=C1c2cc([N+](=O)[O-])cc3cc([N+](=O)[O-])cc(c23)C(=O)N1CCNCCN1C(=O)c2cc([N+](=O)[O-])cc3cc([N+](=O)[O-])cc(c23)C1=O | > 29.5 | 0.0912 | 
COc1ccc(N2C(=O)C3c4[nH]c5ccc(C)cc5c4C4CCC(C(C)C)CC4C3C2=O)cc1 (stereo not drawn) |  |  | inactive
CC(C)CC(NC(=O)C(N)CSSCC(N)C(=O)NC(CC(C)C)C(=O)O)C(=O)O (stereo not drawn) (I: H-Cys-Leu-OH / II: H-Cys-Leu-OH; disulfide I:1-II:1; configuration not given here) |  |  | inactive
O=C1c2cccc3cccc(c23)C(=O)N1c1ncn[nH]1 | > 100 | > 100 | 
O=C1c2ccccc2C(=O)N1C/C=N/NS(=O)(=O)c1ccc(F)cc1 | > 363 | > 363 | 
c1cc2c(s1)-c1sccc1C21OCCO1 | > 200 | 162 | 
CCC1NC(=O)C1NC(=O)OC (stereo not drawn) |  |  | inactive
CN(C)C(=S)Oc1ccc2ccc(=O)oc2c1 | > 200 | > 200 | 

SMILES | EC50 [µM] | IC50 [µM] | outcome
O=C(c1ccccc1)N1C(=O)N(c2ccccc2)C(=Nc2ccccc2)C1=Nc1ccccc1 | > 200 | 19.1 | 
CCCC[PH+](CCCC)CCCC.[C-]#[O+].[C-]#[O+].[C-]#[O+].[C-]#[O+].[Fe] | > 200 | > 200 | 
O=Nc1c(-c2ccccc2)nnc(-c2ccccc2)c1N=O | > 9.33 | > 9.33 | 
COC(=O)C1(C#N)C(C)(C)N=C(c2ccccc2)C12CCCCC2 (stereo not drawn) | > 200 | 93.3 | 
O=C(CCBr)N1CCN(C(=O)CCBr)CC1 | > 708 | 9.33 | 
CCCCC(c1nc2c(c3c1CCCC3)CCCC2)C(O)(C(F)(F)F)C(F)(F)F (stereo not drawn) | > 200 | 38.9 | 
COC(=O)C1(F)C(=O)NC(=O)NC1OC (stereo not drawn) | > 1120 | 17.4 | 
O=C1/C(=C/c2ccc3c(c2)OCO3)Sc2scc(-c3ccc(O)c(O)c3)[n+]21 | > 200 | 1.1 | 
CCCc1nn(C)c(CCC(=O)N(Cc2ccccc2)Cc2ccccc2)c1CC |  |  | inactive
c1cc(C2O[C@H]3CCCN3[C@@H]2c2ccncc2)ccn1 (stereo partly drawn) | > 933 | 331 | 
O=C1C2C(C(=O)N1OS(=O)(=O)c1ccccc1)N(Cc1ccccc1)C(=O)N2Cc1ccccc1 (stereo not drawn) | > 7.59 | > 7.59 | 
CS(=O)(=O)OCCC(=O)N1CCN(C(=O)CCOS(C)(=O)=O)CC1 | > 200 | 35.5 | 
NCCCn1c(Cl)nc2ccccc21 | > 200 | > 200 | 
Cc1nc2sccn2c1C(=O)NC(=O)Nc1ccc(Cl)cc1 | > 20.4 | > 20.4 | 
CN(C(=O)Cc1ccccc1)n1cnn(CC(=O)OC(C)(C)C)c1=S | > 200 | > 200 | 
CC(C)CNC(=O)CCc1cccc2c1oc1c(CCN)cccc12 | > 200 | 14.8 | 
O=C(Nc1ccc(Cl)cc1)c1cc2cc(N=Nc3ccc(Br)cc3)ccc2oc1=O |  |  | inactive
CC(C)c1ccc(C(c2ccc(OCC(=O)O)cc2)c2ccc(C(C)C)cc(=O)c2O)c(O)c(=O)c1 |  |  | inactive
CCn1c2cc(C)c(C)cc2nc2cc3c(cc21)c(Cl)c(=O)c1ccccc13 | > 200 | > 200 | 
